Common to all, as to type: functional
The subject of assay [1] is Mycobacterium tuberculosis. Nature of the assay: Antimicrobial activity against Mycobacterium tuberculosis H37Rv harboring ultra-under-expression of BPL by broth microdilution assay.
Assay [2] has as its system Mycobacterium tuberculosis. The assay can be described thus: Antimicrobial activity against Mycobacterium tuberculosis H37Rv harboring medium over-expression of BPL by broth microdilution assay.
The test system of assay [3] is Mycobacterium tuberculosis. Nature of the assay: Antimicrobial activity against Mycobacterium tuberculosis H37Rv harboring high over-expression of BPL by broth microdilution assay.
The subject of assay [4] is Mycobacterium tuberculosis. Nature of the assay: Antimicrobial activity against Mycobacterium tuberculosis H37Rv harboring medium under-expression of BPL by broth microdilution assay.

≈ marks a conversion by molar mass, not a printed value. Some results are limits rather than exact numbers.

Turning to `CC(CCC[C@@H]1SC[C@@H]2NC(=O)N[C@@H]21)C(=O)[N-]S(=O)(=O)NC[C@H]1O[C@@H](n2cnc3c(N)ncnc32)[C@H](O)[C@@H]1O.[Na+]` (some centres undefined), the MIC50 was 0.79 µM in assay [1], above 100 µM in assay [2], above 100 µM in assay [3] and 3.7 µM in assay [4].

Regarding `Nc1cccc2c1ncn2CCCCNS(=O)(=O)NC(=O)CCCC[C@@H]1SC[C@@H]2NC(=O)N[C@@H]21`, the MIC50 was found to be 16 µM (≈ 8.15 µg/mL) in assay [1] and 18 µM (≈ 9.17 µg/mL) in assay [4].

`Nc1ncnc2c1ncn2[C@@H]1O[C@H](CNS(=O)(=O)[N-]C(=O)CCCC[C@@H]2SC[C@@H]3NC(=O)N[C@@H]32)[C@@H](O)[C@H]1O.[Na+]`: the MIC50 in assay [1] came out at 0.047 µM; in assay [2], 11 µM; in assay [3], 16 µM; in assay [4], 0.14 µM.

On to `Nc1ncnc2c1ncn2[C@@H]1O[C@H](CNS(=O)(=O)[N-]C(=O)NCCC[C@@H]2SC[C@@H]3NC(=O)N[C@@H]32)[C@@H](O)[C@H]1O.[Na+]`, for which the MIC50 in assay [1] was 0.28 µM; in assay [2] it was above 100 µM; in assay [3], above 100 µM; in assay [4], 0.89 µM.

The record behind these values is ChEMBL document CHEMBL6153072, “Metabolically Stable Adenylation Inhibitors of Biotin Protein Ligase as Antibacterial Agents” (J Med Chem, 2025).
